Results on 16 compounds are retold here after US4157392A, “Pharmacologically active substituted 1,2,4-triazines” (Diamond Shamrock Corporation, priority 1978, dated 1979).

Counter-ions that a name gives are not always drawn. Like-named read-outs stand apart in the source and are kept apart here.

The assay relates to phenylquinone writhing in mice. In words: Phenylquinone Writhing Assay (analgesia). In kind it is in vivo, mouse (Carworth CF1 male mice). The conditions noted are these: Mus musculus, po, read-out: Phenylquinone Writhing Assay (% Control), percent analgesia; for responders at 50 mg/kg: 50 mg/kg oral; for responders at 100 mg/kg: 100 mg/kg oral; for responders at 60 mg/kg: 60 mg/kg oral. As for the experimental part: The phenylquinone writhing test was employed to evaluate analgesic activity according to the following procedure:
Phenylquinone (phenyl-p-benzoquinone, No. 7104, Eastman Organic Chemicals) is made up as a 0.02% aqueous solution in 5% ethyl alcohol. Phenylquinone solutions are made up fresh twice daily. Standard reference agents and the test compounds are dissolved or suspended in a 0.25% methylcellulose solution. A control group consisting of ten mice (Carworth CF1 male mice) are administered the 0.02% phenylquinone solution at a dose of 0.25 ml/mouse. The mice are housed individually and observed closely for ten minutes for exhibition of writhing. The onset of writhing occurs within three minutes and 100% of the mice must writhe within ten minutes. Test compounds are administered orally to groups of ten mice. The volume given is 0.01 ml/gram of body weight. Activity can be studied at 15, 30, 60, and 120 minutes after oral administration. After the designated time interval of a dose group has elapsed, the mice are challenged with phenylquinone intraperitoneally. Complete blocking of the writhing syndrom for the ten minute observation period in any one mouse is considered a positive analgesic response for that mouse. Conversely, if any mouse writhes definitely once it is considered not to be protected. The number of mice not writhing in group multiplied by ten equals percent analgesia for that dose at that time interval.
A general note: Writhing tests count abdominal constrictions after an irritant is injected.

With `CC(N)C(=O)NNc1nncc(-c2ccc(Cl)cc2)n1` (stereo not drawn) [Example 114, N2-(5-p-chlorophenyl-1,2,4-triazin-3-yl) alanine hydrazide (dihydrobromide hydrate)], the responders at 50 mg/kg worked out at 50% (0.25 h, 15 Min.); 50% (0.5 h, 30 Min.); 60% (1 h, 60 Min).
For `COc1nnc(-c2ccc(Cl)cc2)c(-c2ccc(Cl)cc2)n1` [Example 96, 3-methoxy-5,6-bis(4'-chlorophenyl)-1,2,4-triazine], the responders at 100 mg/kg was 30% (0.5 h, 30 Min.) and 10% (1 h, 60 Min).
In the case of `CC(C)Oc1nnc(-c2ccccc2)c(-c2ccccc2)n1` [Example 95, 3-isopropoxy-5,6-diphenyl-1,2,4-triazine], the responders at 100 mg/kg (0.25 h, 15 Min.) is 10%; the responders at 100 mg/kg (0.5 h, 30 Min.) was determined as 10%; the responders at 100 mg/kg (1 h, 60 Min) turned out to be 20%.
On to `Oc1nncc(-c2ccccc2)n1` [Example 90, 3-hydroxy-5-phenyl-1,2,4-triazine], for which the responders at 100 mg/kg (1 h, 60 Min) is 20%.
For `CSc1nncc(-c2c3ccccc3cc3ccccc23)n1` [Example 84, 3-methylthio-5-(9'-anthracenyl)-1,2,4-triazine], the responders at 100 mg/kg is, setting by setting: (0.5 h, 30 Min.) 10%; (1 h, 60 Min) 20%.
For `CSc1nncc(-c2ccc3c(c2)OCO3)n1` [Example 86, 3-methylthio-5-(3',4'-methylenedioxyphenyl)-1,2,4-triazine], the responders at 100 mg/kg (0.25 h, 15 Min.) was 20%.
Take `CSc1nncc(-c2ccc(Cl)s2)n1` [Example 70, 3-methylthio-5-(5'-chloro-2'-thienyl)-1,2,4-triazine]: the responders at 50 mg/kg (0.25 h, 15 Min.) is 10%; the responders at 50 mg/kg (0.5 h, 30 Min.) turned out to be 20%; the responders at 50 mg/kg (1 h, 60 Min) stood at 10%. The responders at 100 mg/kg is 10% (0.25 h, 15 Min.); 20% (0.5 h, 30 Min.); 10% (1 h, 60 Min).
Turning to `COc1ccc(-c2nnc(SC)nc2-c2ccc(OC)cc2)cc1` [Example 93, 3-methylthio-5,6-bis(4'-methoxyphenyl)-1,2,4-triazine], the responders at 100 mg/kg by setting is: (0.25 h, 15 Min.) 20%; (0.5 h, 30 Min.) 30%; (1 h, 60 Min) 30%.
On to `c1ccc(-c2nnc(-c3ccccn3)nc2-c2ccccc2)cc1` [Example 81, 3-(2'-pyridyl)-5,6-diphenyl-1,2,4-triazine], for which the responders at 100 mg/kg stood at 10% (0.25 h, 15 Min.) and 20% (0.5 h, 30 Min.).
Take `COc1nncc(-c2cccc(Cl)c2)n1` [Example 75, 3-methoxy-5-(3'-chlorophenyl)-1,2,4-triazine]: the responders at 60 mg/kg came to 100% (0.25 h, 15 Min.); 90% (0.5 h, 30 Min.); 70% (1 h, 60 Min).
As for `COc1ncc(-c2ccccc2)nn1` [Example 82, 3-methoxy-6-phenyl-1,2,4-triazine], the responders at 25 mg/kg (0.25 h, 25 mg/kg oral, 15 Min.) is 10%. Further, the responders at 50 mg/kg runs as follows: (0.25 h, 15 Min.) 10%; (0.5 h, 30 Min.) 10%.
As to `COc1cccc(-c2cnnc(SC)n2)c1` [Example 68, 3-methylthio-5-(3'-methoxyphenyl)-1,2,4-triazine], where the note is “0.25 h, 30 mg/kg oral, 15 Min.”, the responders at 30 mg/kg turned out to be 10%.
For the compound `CSc1nncc(-c2cccc3ccccc23)n1` [Example 71, 3-methylthio-5-(1'-naphthyl)-1,2,4-triazine], the responders at 100 mg/kg by setting is: (0.5 h, 30 Min.) 10%; (1 h, 60 Min) 20%.
In the case of `CSc1nncc(-c2ccc(Cl)cc2)n1` [Example 74, 3-methylthio-5-(4'-chlorophenyl)-1,2,4-triazine], the responders at 100 mg/kg (0.25 h, 15 Min.) worked out at 10%.
For the compound `CSc1nncc(-c2cccc(Cl)c2)n1` [Example 15, 3-methylthio-5-(3'-chlorophenyl)-1,2,4-triazine], the responders at 60 mg/kg (0.25 h, 15 Min.) was found to be 10%.
With `COc1nncc(-c2c(C)cc(C)cc2C)n1` [Example 89, 3-methoxy-5-(2',4',6'-trimethylphenyl)-1,2,4-triazine], the responders at 100 mg/kg amounted to 10% (0.25 h, 15 Min.) and 10% (1 h, 60 Min).
